From patent publication US7795457B2, “Carbamate compounds” (Kosan Biosciences Incorporated, priority 2007, dated 2010)
Where two headings read alike, the source gives them in different places.

Assays:
[1] = system: OVCAR-4; test: Inhibition of tumor cell proliferation, OVCAR-4; format: cell-based; conditions: Homo sapiens
Procedure: (§1) The biological activity of compounds of this invention was evaluated by measuring their inhibitory effect on the proliferation of various tumor cell lines. HCT-116 is a human colon cancer cell line. LNCap is a human prostate cancer cell line. SiHa is an HPV-16 positive human cervical cancer line.
(§2) Table D presents additional data for the activity of compounds A-1 and A-4 against various cell lines. In some instances, comparative data against leptomycin B (LMB) and/or compound VI (Dong et al., US 2005/0272727 A1 (2005) is also provided.
(§3) The additional cell lines tested against represent a variety of different cancers: bladder cancer (UM-UC-3), breast cancer (BT474, HCC1937, MDA-MB468, NCI-ADR), CNS cancer (U87MG (glioma), SKNSH (neuroblastoma)), colon cancer (LoVo, LS411N, LS513), head and neck cancer (CAL-27, FaDu), leukemia (CCRF-CEM, MOLT-4), liver cancer (HepG2), lung cancer (A549, NCI-H23, NCI-H358), melanoma (Colo829), ovarian cancer (OVCAR-4), pancreatic cancer (BxPC-3, Mia-PaCa2), prostate cancer (22Rv1, PC-3), and renal cancer (A-498, Caki-1).

[2] = system: HepG2; test: Inhibition of tumor cell proliferation, HepG2; format: cell-based; conditions: Homo sapiens
Procedure: as §1, §2, §3

[3] = system: U87MG; test: Inhibition of tumor cell proliferation, U87MG; format: cell-based; conditions: Homo sapiens, U-87 MG
Procedure: as §1, §2, §3

[4] = system: A-498; test: Inhibition of tumor cell proliferation, A-498; format: cell-based; conditions: Homo sapiens, A498; exposure time 1 h
Procedure: as §1, §2, §3

[5] = system: NCI-H23; test: Inhibition of tumor cell proliferation, NCI-H23; format: cell-based; conditions: Homo sapiens
Procedure: as §1, §2, §3

[6] = system: BT474; test: Inhibition of tumor cell proliferation, BT474; format: cell-based; conditions: Homo sapiens, BT-474
Procedure: as §1, §2, §3

[7] = system: UM-UC-3; test: Inhibition of tumor cell proliferation, UM-UC-3; format: cell-based; conditions: Homo sapiens, read-out: IC50, nM, UM-UC-3
Procedure: as §1, §2, §3

[8] = system: SiHa; test: Inhibition of tumor cell proliferation, SiHa; format: cell-based, human; conditions: Homo sapiens, SiHa, read-out: Cancer Cell Line (IC50, nM) SiHa
Procedure: as §1

[9] = system: Mia-PaCa2; test: Inhibition of tumor cell proliferation, Mia-PaCa2; format: cell-based; conditions: Homo sapiens, MIA PaCa-2
Procedure: as §1, §2, §3

[10] = system: NCI-ADR; test: Inhibition of tumor cell proliferation, NCI-ADR; format: cell-based; conditions: Homo sapiens, NCI/ADR-RES, read-out: IC50, nM, NCI-ADR
Procedure: as §1, §2, §3

[11] = system: CAL-27; test: Inhibition of tumor cell proliferation, CAL-27; format: cell-based; conditions: Homo sapiens
Procedure: as §1, §2, §3

[12] = system: CRM1 substrate RanBP1; test: Nuclear export block (RanBP1 localization, recovery after compound removal); format: cell-based; conditions: recovery of cytoplasmic RanBP1 localization after compound washout (typically 1 h exposure; 8, 24 or 48 h recovery)
Procedure: The nuclear export blocking capability of compounds of this invention was evaluated as follows:
1-5×10^4 cells were seeded onto 12 mm glass coverslips or wells of a chamber slide (for example, Lab-Tek #177445). Cells were grown overnight at 37° C. to allow cells to attach to the surface. Media was removed and replaced with media containing the desired test compound and incubated the required time period (typically 1 h). For recovery experiments, cells were washed with PBS or media and incubated in media without test compound for the desired recovery periods (typically 8, 24, or 48 h). The media was removed and coverslips/wells were washed with PBS pH 7.4 for 1 minute. Coverslips or slides were fixed with 3.7% formaldehyde in PBS for 20 minutes at room temperature, washed three times in PBS, and stained for the CRM1 substrate RanBP1.
Coverslips or chamber slides were permeabilized and blocked in 10% donkey serum, 0.1% Triton X-100 in PBS for 30 minutes at room temperature. Primary antibodies were diluted in PBS and incubated for 1 hour at room temperature: goat-anti-RanBP1 (Santa Cruz Biotechnology, sc-1160; 1:50 dilution) and mouse-anti-tubulin (Sigma, T9026; 1:400). Cells were washed 3×5 minutes in PBS. Secondary antibodies donkey-anti-goat Cy3 (705-165-147, Jackson Immunoresearch) and donkey anti-mouse FITC (715-095-150, Jackson Immunoresearch) were diluted 1:200 in PBS and incubated for 1 hour at room temperature. Secondary antibody was removed and cells were stained with a nuclear dye such as DAPI (Sigma, D8417; 2.5 ug/mL in PBS) or Hoechst 33342 (Molecular Probes, H3570; 100 ng/mL in PBS) for 5 minutes at room temperature. Cells were washed 3×5 minutes in PBS and coverslips were mounted with FluorSave (EMD Biosciences, 80058-108). Nuclear (N) or cytoplasmic (C) localization of RanBP1 was examined using a 40× objective on a Zeiss Axiovert 200 inverted epiflourescence microscope. Nuclear localization (N>C) was confirmed after the initial drugging period.

[13] = system: HCT-116; test: Inhibition of tumor cell proliferation, HCT-116; format: cell-based, human; conditions: Homo sapiens, read-out: Cancer Cell Line (IC50, nM) HCT-116
Procedure: as §1

[14] = system: Colo829; test: Inhibition of tumor cell proliferation, Colo829; format: cell-based; conditions: Homo sapiens, COLO-829
Procedure: as §1, §2, §3

[15] = system: 22Rv1; test: Inhibition of tumor cell proliferation, 22Rv1; format: cell-based; conditions: Homo sapiens
Procedure: as §1, §2, §3

[16] = system: LS513; test: Inhibition of tumor cell proliferation, LS513; format: cell-based; conditions: Homo sapiens, LS-513
Procedure: as §1, §2, §3

[17] = system: NCI-H358; test: Inhibition of tumor cell proliferation, NCI-H358; format: cell-based; conditions: Homo sapiens
Procedure: as §1, §2, §3

[18] = system: LNCap; test: Inhibition of tumor cell proliferation, LNCap; format: cell-based, human; conditions: Homo sapiens, LNCaP, read-out: Cancer Cell Line (IC50, nM) LNCap
Procedure: as §1

[19] = system: HCC1937; test: Inhibition of tumor cell proliferation, HCC1937; format: cell-based; conditions: Homo sapiens
Procedure: as §1, §2, §3

[20] = system: LS411N; test: Inhibition of tumor cell proliferation, LS411N; format: cell-based; conditions: Homo sapiens, LS-411N
Procedure: as §1, §2, §3

[21] = system: FaDu; test: Inhibition of tumor cell proliferation, FaDu; format: cell-based; conditions: Homo sapiens
Procedure: as §1, §2, §3

[22] = system: A549; test: Inhibition of tumor cell proliferation, A549; format: cell-based; conditions: Homo sapiens, read-out: IC50, nM, A549
Procedure: as §1, §2, §3

[23] = system: SKNSH; test: Inhibition of tumor cell proliferation, SKNSH; format: cell-based; conditions: Homo sapiens, SK-N-SH, read-out: IC50, nM, SKNSH
Procedure: as §1, §2, §3

[24] = system: PC-3; test: Inhibition of tumor cell proliferation, PC-3; format: cell-based; conditions: Homo sapiens
Procedure: as §1, §2, §3

[25] = system: MOLT-4; test: Inhibition of tumor cell proliferation, MOLT-4; format: cell-based; conditions: Homo sapiens, exposure time 72 h
Procedure: as §1, §2, §3

[26] = system: LoVo; test: Inhibition of tumor cell proliferation, LoVo; format: cell-based; conditions: Homo sapiens, exposure time 1 h
Procedure: as §1, §2, §3

[27] = system: Caki-1; test: Inhibition of tumor cell proliferation, Caki-1; format: cell-based; conditions: Homo sapiens, exposure time 1 h
Procedure: as §1, §2, §3

[28] = system: CCRF-CEM; test: Inhibition of tumor cell proliferation, CCRF-CEM; format: cell-based; conditions: Homo sapiens, exposure time 72 h
Procedure: as §1, §2, §3

CC(=C/[C@H](C)C/C=C/C(C)=C/[C@@H](C)C(=O)[C@@H](C)[C@H](OC(N)=O)[C@@H](C)C/C(C)=C/COC(N)=O)/C=C/[C@H]1CC=CC(=O)O1 [Compound A-4]
IC50 ([1]; exposure time 1 h): 80 nM
IC50 ([1]; exposure time 72 h): 8.8 nM
IC50 ([2]; exposure time 1 h): 7.8 nM
IC50 ([2]; exposure time 72 h): 0.8 nM
IC50 ([3]; exposure time 1 h): 25.5 nM
IC50 ([3]; exposure time 72 h): 1.5 nM
IC50 [4]: 16 nM
IC50 ([5]; exposure time 1 h): 8.5 nM
IC50 ([5]; exposure time 72 h): 1.3 nM
IC50 ([6]; exposure time 1 h): 3.8 nM
IC50 ([6]; exposure time 72 h): 2.3 nM
IC50 ([7]; UMUC3, 1 h): 7 nM
IC50 ([7]; UMUC3, 72 h): 1.4 nM
IC50 ([8]; 1 h): 3.6 nM
IC50 ([8]; 72 h): 0.8 nM
IC50 ([9]; exposure time 1 h): 49.7 nM
IC50 ([9]; exposure time 72 h): 10.8 nM
IC50 ([10]; 1 h): 771 nM
IC50 ([10]; 72 h): 71.3 nM
IC50 ([11]; exposure time 1 h): 2.8 nM
IC50 ([11]; exposure time 72 h): 0.5 nM
Nuclear Export Block [12]: Moderate recovery
IC50 ([13]; HCT-116, 1 h): 13.1 nM
IC50 ([13]; HCT-116, 72 h): 2.2 nM
IC50 ([14]; exposure time 1 h): 4.6 nM
IC50 ([14]; exposure time 72 h): 0.9 nM
IC50 ([15]; exposure time 1 h): 4.6 nM
IC50 ([15]; exposure time 72 h): 0.7 nM
IC50 ([16]; exposure time 1 h): 6.3 nM
IC50 ([16]; exposure time 72 h): 1 nM
IC50 ([17]; exposure time 1 h): 5.6 nM
IC50 ([17]; exposure time 72 h): 0.7 nM
IC50 ([18]; 1 h): 6.6 nM
IC50 ([18]; 72 h): 1.5 nM
IC50 ([19]; exposure time 1 h): 42.3 nM
IC50 ([19]; exposure time 72 h): 7.3 nM
IC50 ([20]; exposure time 1 h): 9.4 nM
IC50 ([20]; exposure time 72 h): 1.6 nM
IC50 ([21]; exposure time 1 h): 27.9 nM
IC50 ([21]; exposure time 72 h): 1.6 nM

CCC(=C/[C@H](C)C/C=C/C(C)=C/[C@@H](C)C(=O)[C@@H](C)[C@H](O)[C@@H](C)C/C(C)=C/C(=O)O)/C=C/[C@@H]1OC(=O)C=C[C@@H]1C [Leptomycin B, reference compound]
IC50 ([22]; A549, exposure time 72 h): 0.55 nM
IC50 ([7]; UMUC3, exposure time 72 h): 0.3 nM
IC50 ([8]; exposure time to compound 1 h): 2.1 nM
IC50 ([8]; exposure time to compound 72 h): 0.4 nM
IC50 ([23]; exposure time 1 h): 4.1 nM
IC50 ([23]; exposure time 72 h): 0.4 nM
IC50 ([10]; exposure time 1 h): 33.8 nM
Nuclear Export Block [12]: Slow recovery
IC50 ([13]; HCT-116, exposure time to compound 1 h): 4.3 nM
IC50 ([13]; HCT-116, exposure time to compound 72 h): 0.32 nM
IC50 ([18]; exposure time to compound 1 h): 3.3 nM
IC50 ([18]; exposure time to compound 72 h): 0.3 nM

CCC(=C/[C@H](C)C/C=C/C(C)=C/[C@@H](C)C(=O)[C@@H](C)[C@H](O)[C@@H](C)C/C(C)=C/C(=O)NCCc1cccnc1)/C=C/[C@@H]1OC(=O)C=C[C@@H]1C [VI, reference compound]
IC50 ([24]; exposure time 1 h): 3.3 nM
IC50 ([24]; exposure time 72 h): 0.7 nM
IC50 ([1]; exposure time 1 h): 6.7 nM
IC50 ([1]; exposure time 72 h): 1.5 nM
IC50 ([2]; exposure time 1 h): 3.2 nM
IC50 ([2]; exposure time 72 h): 0.7 nM
IC50 ([3]; exposure time 1 h): 5 nM
IC50 ([3]; exposure time 72 h): 0.6 nM
IC50 [4]: 4.8 nM
IC50 ([5]; exposure time 1 h): 2.6 nM
IC50 ([5]; exposure time 72 h): 0.4 nM
IC50 ([6]; exposure time 1 h): 2.1 nM
IC50 ([6]; exposure time 72 h): 0.8 nM
IC50 ([22]; A549, 1 h): 3.8 nM
IC50 ([22]; A549, 72 h): 3 nM
IC50 ([7]; UMUC3, 1 h): 2.6 nM
IC50 ([7]; UMUC3, 72 h): 0.3 nM
IC50 ([9]; exposure time 1 h): 5 nM
IC50 ([9]; exposure time 72 h): 1.7 nM
IC50 ([23]; 1 h): 2.2 nM
IC50 ([23]; 72 h): 0.5 nM
IC50 ([10]; 1 h): 77.3 nM
IC50 ([10]; 72 h): 13 nM
IC50 ([11]; exposure time 1 h): 0.7 nM
IC50 ([11]; exposure time 72 h): 0.3 nM
IC50 [25]: 2.9 nM
IC50 ([14]; exposure time 1 h): 2.1 nM
IC50 ([14]; exposure time 72 h): 0.3 nM
IC50 [26]: 2.5 nM
IC50 ([15]; exposure time 1 h): 1.8 nM
IC50 ([15]; exposure time 72 h): 0.3 nM
IC50 ([16]; exposure time 1 h): 5.5 nM
IC50 ([16]; exposure time 72 h): 0.9 nM
IC50 [27]: 4.5 nM
IC50 [28]: 0.8 nM
IC50 ([17]; exposure time 1 h): 1.6 nM
IC50 ([17]; exposure time 72 h): 0.4 nM
IC50 ([19]; exposure time 1 h): 5.7 nM
IC50 ([19]; exposure time 72 h): 4.3 nM
IC50 ([20]; exposure time 1 h): 2.9 nM
IC50 ([20]; exposure time 72 h): 0.5 nM
IC50 ([21]; exposure time 1 h): 7.3 nM
IC50 ([21]; exposure time 72 h): 1 nM
